Reference: patent US11278499B2, “Oral drug dosage form comprising various release profiles” (Triastek, Inc., priority 2015, dated 2022)

Test: Release of benzoic acid from pie-shaped-compartment dosage form, UV 226 nm
Assay type: physicochemical
Conditions: PEG8000 flat tablet with pie shaped compartment; pH 8 Na2HPO4 solution, 37° C., 100 rpm; FIG. 18C
Protocol: The release profile of the benzoic acid from the dosage form was measured as the following method. Na2HPO4 solution of pH 8 was prepared as dissolvent of benzoic acid. Benzoic acid solution of 120 μg/mL was serially diluted to 30 μg/mL, 15 μg/m, 7.5 μg/m, 3.75 μg/mL, and 1.875 μg/mL solutions, whose absorbance at 226 nm was measured using a UV spectrophotometer. The numbers obtained were treated with linear regression to generate a standard curve of benzoic acid concentration with the formula y=0.0599x+0.0347. To measure the released amount of benzoic acid, the dosage form was dissolved in degassed pH 8 Na2HPO4 solution at 37° C.±0.5° C. and […] at 100 rpm. 5 mL solution was collected from the solution at each time point to measure the concentration of benzoic acid with 5 mL dissolvent added back to the solution. The collected solution was filtered through 0.45 um membrane before transferred to an UV spectrophotometer for measuring the absorbance at 226 nm. The percentage of benzoic acid released was calculated using the following formula: […]
Wherein Cn means concentrate measured, Vtmeans total solution volume,
Vs means sample volume, Qbenzoic acid means amout of benzoic acid in the dosage form

O=C(O)c1ccccc1 [benzoic acid, Benzoic acid]
release profile of the benzoic acid: matches a model profile
